By inhibition is commonly meant the change of the read-out against control, counted positive when it falls. For orientation: IC50 means the concentration at which inhibition is half-maximal. The term logD denotes lipophilicity at a set pH, counting ionised and neutral species. One may read the Kd as the constant that tells how readily two partners part at equilibrium.

Calls of active or inactive are those of the source. No cut-off for these calls is given here.

For data set [1], the target named is T1, Acetylcholinesterase (Homo sapiens, UniProt P22303). Kind of data set: Inhibition of human AChE using acetylthiocholine iodide as substrate at 20 uM preincubated with enzyme for 5 mins followed by substrate addition and measured after 5 mins by Ellman's method. To be noted: time 10.0 min. For orientation: Ellman's reagent forms a yellow product with free thiols.
T1 sequence (P22303 whole entry): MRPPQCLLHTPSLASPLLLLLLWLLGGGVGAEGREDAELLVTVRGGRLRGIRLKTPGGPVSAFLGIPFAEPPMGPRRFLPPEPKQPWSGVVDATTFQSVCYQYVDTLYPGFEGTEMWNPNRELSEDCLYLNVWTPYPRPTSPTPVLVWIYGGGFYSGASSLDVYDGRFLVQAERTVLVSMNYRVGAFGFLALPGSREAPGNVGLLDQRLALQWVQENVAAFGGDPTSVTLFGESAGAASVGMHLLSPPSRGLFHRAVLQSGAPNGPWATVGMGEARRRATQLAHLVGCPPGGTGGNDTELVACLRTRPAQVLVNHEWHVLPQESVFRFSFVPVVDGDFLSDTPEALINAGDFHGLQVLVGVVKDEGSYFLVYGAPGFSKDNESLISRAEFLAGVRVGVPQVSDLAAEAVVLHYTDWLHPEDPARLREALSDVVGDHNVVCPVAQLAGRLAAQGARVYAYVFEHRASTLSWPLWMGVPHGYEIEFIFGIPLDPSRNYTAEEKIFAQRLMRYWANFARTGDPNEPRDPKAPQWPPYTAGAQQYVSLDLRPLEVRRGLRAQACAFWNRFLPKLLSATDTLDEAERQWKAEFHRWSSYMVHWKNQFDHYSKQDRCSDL

The target of data set [2] is Cholinesterase (Equus caballus) (UniProt P81908). The data set can be described thus: Pseudo-irreversible inhibition of equine serum BuChE assessed as carbamolyation-rate using butyrylthiocholine iodide as substrate preincubated with enzyme for 60 mins prior to substrate addition. The data set is classed as cell-free.
Cholinesterase (Equus caballus), sequence (P81908 whole entry): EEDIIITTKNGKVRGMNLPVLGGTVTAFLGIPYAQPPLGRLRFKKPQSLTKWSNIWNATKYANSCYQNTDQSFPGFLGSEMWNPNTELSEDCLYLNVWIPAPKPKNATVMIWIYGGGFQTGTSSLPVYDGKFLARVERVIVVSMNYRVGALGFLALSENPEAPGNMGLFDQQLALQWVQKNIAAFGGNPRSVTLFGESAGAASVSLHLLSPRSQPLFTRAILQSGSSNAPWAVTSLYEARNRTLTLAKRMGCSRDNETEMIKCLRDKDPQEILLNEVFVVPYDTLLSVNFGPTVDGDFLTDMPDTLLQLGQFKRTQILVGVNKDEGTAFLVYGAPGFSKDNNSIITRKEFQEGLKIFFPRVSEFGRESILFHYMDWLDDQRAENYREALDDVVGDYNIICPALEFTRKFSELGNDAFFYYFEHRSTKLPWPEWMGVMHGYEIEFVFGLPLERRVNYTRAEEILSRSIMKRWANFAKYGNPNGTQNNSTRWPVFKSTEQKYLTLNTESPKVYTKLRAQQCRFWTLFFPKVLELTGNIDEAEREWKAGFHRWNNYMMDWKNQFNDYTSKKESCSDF
The target is the same in data set [3]. The data set can be described thus: Pseudo-irreversible inhibition of equine serum BuChE assessed as overall carbamolyation-rate using butyrylthiocholine iodide as substrate preincubated with enzyme for 60 mins prior to substrate addition. The data set is classed as cell-free.
A short description of data set [4]: Antioxidant activity assessed as DPPH radical scavenging activity at 100 uM incubated for 2 hrs by microplate reader method. In kind it is functional.
In data set [5] the target is Cholinesterase (Equus caballus) (UniProt P81908). The data set can be described thus: Pseudo-irreversible inhibition of equine serum BuChE assessed as decarbamolyation-rate using butyrylthiocholine iodide as substrate preincubated with enzyme for 60 mins prior to substrate addition. In kind it is cell-free.
Data set [6] has as its target T2, Cholinesterase (Equus caballus, UniProt P81908).
Description: Inhibition of equine serum BuChE using butyrylthiocholine iodide as substrate preincubated with enzyme for 20 mins followed by substrate addition and measured after 20 mins by Ellman's method
In data set [7] the target is Acetylcholinesterase (Electrophorus electricus) (UniProt O42275). Kind of data set: Inhibition of electric eel AChE using acetylthiocholine iodide as substrate at 20 uM preincubated with enzyme for 20 mins followed by substrate addition and measured after 20 mins by Ellman's method. To be noted: time 40.0 min.
Acetylcholinesterase (Electrophorus electricus), sequence (O42275 24-633 limits assumed): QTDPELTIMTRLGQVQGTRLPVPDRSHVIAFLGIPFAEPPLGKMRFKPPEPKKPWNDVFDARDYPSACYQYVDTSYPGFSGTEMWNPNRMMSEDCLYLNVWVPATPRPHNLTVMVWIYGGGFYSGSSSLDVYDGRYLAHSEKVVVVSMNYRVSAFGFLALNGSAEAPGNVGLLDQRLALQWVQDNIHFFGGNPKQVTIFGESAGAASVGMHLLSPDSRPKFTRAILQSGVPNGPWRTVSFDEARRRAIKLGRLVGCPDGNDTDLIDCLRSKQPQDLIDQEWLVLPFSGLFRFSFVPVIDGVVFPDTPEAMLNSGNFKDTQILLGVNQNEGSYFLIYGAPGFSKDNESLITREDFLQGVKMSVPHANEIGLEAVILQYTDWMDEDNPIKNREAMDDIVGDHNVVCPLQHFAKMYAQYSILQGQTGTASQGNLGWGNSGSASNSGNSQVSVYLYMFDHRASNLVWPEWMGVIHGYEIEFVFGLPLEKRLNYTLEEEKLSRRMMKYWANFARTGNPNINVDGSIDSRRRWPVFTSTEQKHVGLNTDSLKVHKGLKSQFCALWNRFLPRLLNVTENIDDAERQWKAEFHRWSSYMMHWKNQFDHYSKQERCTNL
Data set [8] concerns the target Acetylcholinesterase (Electrophorus electricus, UniProt O42275). Kind of data set: Inhibition of electric eel AChE using acetylthiocholine iodide as substrate preincubated with enzyme for 20 mins followed by substrate addition and measured after 20 mins by Ellman's method.
For data set [9], the target named is T1, Acetylcholinesterase. Kind of data set: Inhibition of human AChE using acetylthiocholine iodide as substrate preincubated with enzyme for 5 mins followed by substrate addition and measured after 5 mins by Ellman's method.
Data set [10] addresses Cholinesterase (Homo sapiens, UniProt P06276).
Description: Inhibition of human serum BuChE using butyrylthiocholine iodide as substrate preincubated with enzyme for 5 mins followed by substrate addition and measured after 5 mins by Ellman's method
Data set [11] in a line: n-Octanol/PBS partition coefficient, logP of the compound incubated for 48 hrs at pH 7.4 by shake flask method. In kind it is physicochemical.
For data set [12], the target named is T2, Cholinesterase. Kind of data set: Pseudo-irreversible inhibition of equine serum BuChE assessed as binding affinity in an equilibrium state using butyrylthiocholine iodide as substrate preincubated with enzyme for 60 mins prior to substrate addition. In kind it is cell-free.
Data set [13] is described as follows: Permeability of the compound at 100 ug/ml incubated for 18 hrs by PAMPA. In kind it is ADME. To be noted: dose 100 µg/ml, read-out: permeability.
Data set [14] can be described thus: Cytotoxicity against human HepG2 cells assessed as cell viability at 25 uM incubated for 24 hrs by MTT assay. In kind it is cell-based. To be noted: read-out: Activity. (In general: Tetrazolium dyes change colour on reduction, which living cells bring about.)
Data set [15] in a line: Cytotoxicity against human L02 cells assessed as cell viability at 50 uM incubated for 24 hrs by MTT assay. In kind it is cell-based. To be noted: read-out: Activity.
A further data set deals with PC-12. The data set can be described thus: Neuroprotective activity against H2O2-induced cytotoxicity in rat PC-12 cells assessed as cell viability at 25 uM pretreated for 3 hrs followed by H2O2 stimulation and measured after 24 hrs by MTT assay (reference value: 38.7%). The data set is classed as functional. To be noted: time 27 hrs, read-out: Activity.
For data set [16], the system named is Mus musculus. The data set can be described thus: Anti-alzheimer activity against scopolamine-induced cognitive dysfunction mouse model assessed as increase in swimming time in the target quadrant crossing at 10 mg/kg, ip measured after 60 mins by Morris water maze test. In kind it is functional, organism-based.
Data set [17] concerns Mus musculus. Kind of data set: Anti-alzheimer activity against oligomerized-amyloid beta (1 to 42) peptide-induced cognitive dysfunction ICR mouse model assessed as simplification of trajectories to the platform at 15 mg/kg, po administered from day 3 to 14 by Morris water maze test. In kind it is functional, organism-based. To be noted: time 12.0 day.
Data set [18] deals with Mus musculus. The data set can be described thus: Anti-alzheimer activity against oligomerized-amyloid beta (1 to 42) peptide-induced cognitive dysfunction ICR mouse model assessed as reduction in escape latency time at 15 mg/kg, po administered from day 3 to 14 by Morris water maze test. In kind it is functional, organism-based. To be noted: time 12.0 day.
The test system of data set [19] is Mus musculus. Kind of data set: Anti-alzheimer activity against scopolamine-induced cognitive dysfunction mouse model assessed as reduction in escape time latency at 10 mg/kg, ip measured after 60 mins by Morris water maze test. The data set is classed as functional, organism-based.
Data set [20] is described as follows: Cytotoxicity against human HepG2 cells assessed as cell viability at 50 uM incubated for 24 hrs by MTT assay. In kind it is cell-based. To be noted: read-out: Activity.
The subject of data set [21] is Mus musculus. The data set can be described thus: Anti-alzheimer activity against oligomerized-amyloid beta (1 to 42) peptide-induced cognitive dysfunction ICR mouse model assessed as improvement in alteration performance at 15 mg/kg, po administered from day 3 to 14 by […]. In kind it is functional, organism-based. To be noted: time 12.0 day.
Data set [22] is filed under the species Mus musculus. The data set can be described thus: animal or person. To be noted: ICR, po, 288 h, read-out: INH.
Description: Anti-alzheimer activity against oligomerized-amyloid beta (1 to 42) peptide-induced cognitive dysfunction ICR mouse model assessed as reduction in amyloid beta (1 to 42) peptide level in brain at 15 mg/kg, po administered from day 3 to 14 by ELISA
The test system of data set [23] is Mus musculus. Kind of data set: Anti-alzheimer activity against scopolamine-induced cognitive dysfunction mouse model assessed as increase in number of platform crossing at 10 mg/kg, ip measured after 60 mins by Morris water maze test. In kind it is functional, organism-based.

T2 sequence (P81908 whole entry): as the sequence (P81908 whole entry) above
Acetylcholinesterase (Electrophorus electricus, UniProt O42275), sequence (O42275 whole entry): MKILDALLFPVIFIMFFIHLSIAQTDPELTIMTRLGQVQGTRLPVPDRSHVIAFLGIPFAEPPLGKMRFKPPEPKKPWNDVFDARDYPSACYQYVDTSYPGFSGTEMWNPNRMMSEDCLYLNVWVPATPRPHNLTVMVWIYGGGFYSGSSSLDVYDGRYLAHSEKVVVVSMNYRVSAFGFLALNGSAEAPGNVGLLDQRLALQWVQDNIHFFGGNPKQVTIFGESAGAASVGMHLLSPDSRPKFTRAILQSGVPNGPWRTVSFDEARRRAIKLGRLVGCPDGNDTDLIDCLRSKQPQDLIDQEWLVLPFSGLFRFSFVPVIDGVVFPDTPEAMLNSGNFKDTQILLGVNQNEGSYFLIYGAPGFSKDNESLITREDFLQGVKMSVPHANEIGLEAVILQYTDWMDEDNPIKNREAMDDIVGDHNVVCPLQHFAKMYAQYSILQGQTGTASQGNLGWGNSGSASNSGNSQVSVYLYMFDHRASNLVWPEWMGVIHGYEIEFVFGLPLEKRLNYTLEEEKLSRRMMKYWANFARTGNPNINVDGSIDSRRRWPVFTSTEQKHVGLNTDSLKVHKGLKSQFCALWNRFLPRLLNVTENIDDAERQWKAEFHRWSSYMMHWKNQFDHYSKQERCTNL
Cholinesterase (Homo sapiens, UniProt P06276), sequence (P06276 whole entry): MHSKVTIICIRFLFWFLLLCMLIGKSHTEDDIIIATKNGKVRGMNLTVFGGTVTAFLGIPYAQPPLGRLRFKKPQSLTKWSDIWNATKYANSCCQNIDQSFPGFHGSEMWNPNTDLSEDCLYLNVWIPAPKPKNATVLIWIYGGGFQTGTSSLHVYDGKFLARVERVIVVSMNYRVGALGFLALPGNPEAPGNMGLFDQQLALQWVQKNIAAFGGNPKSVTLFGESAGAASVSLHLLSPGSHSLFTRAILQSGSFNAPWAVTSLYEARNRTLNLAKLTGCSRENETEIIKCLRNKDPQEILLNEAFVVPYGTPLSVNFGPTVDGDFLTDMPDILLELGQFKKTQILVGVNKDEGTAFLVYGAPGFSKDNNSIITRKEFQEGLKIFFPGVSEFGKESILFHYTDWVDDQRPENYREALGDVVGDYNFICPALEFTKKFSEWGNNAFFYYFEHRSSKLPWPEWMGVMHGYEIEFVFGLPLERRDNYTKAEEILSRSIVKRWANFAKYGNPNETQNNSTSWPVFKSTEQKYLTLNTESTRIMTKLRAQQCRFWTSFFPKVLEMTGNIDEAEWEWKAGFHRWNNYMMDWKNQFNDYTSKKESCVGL

For the compound `CCN(C)C(=O)Oc1cccc([C@H](C)N(C)C)c1`, the results for the inhibition (against Acetylcholinesterase [1]; in data set [4]) were 12.2% and 2.5%, respectively. In addition, the results for the K in [2], in data set [3] and in [5] were 0.3 min⁻¹, 0.26 µM/min and 4.97 10^3/min, respectively.
On Cholinesterase [6], `C=C(C)[C@@H]1CCC(C)=C[C@H]1c1c(O)cc(CCCCC)cc1OC(=O)N(CC)CC` displayed an IC50 of 370 nM. In addition, the inhibition in [7] came to 28.4%; in data set [4] it was 40.4%.
For `C=C(C)[C@@H]1CCC(C)=C[C@H]1c1c(O)cc(CCCCC)cc1OC(=O)N(C)Cc1cccc(Br)c1`, the IC50 was 2400 nM against Cholinesterase [6] and “Not Active” against Acetylcholinesterase [8]. Further, in data set [4], the inhibition entry is “inactive”.
As to `O=C1O[C@H]([C@@H](O)CO)C(O)=C1O`, in [4], the inhibition came to 86.2%.
Turning to `C=C(C)[C@@H]1CCC(C)=C[C@H]1c1c(O)cc(CCCCC)cc1OC(=O)N1CCOCC1`, the figures for the IC50 on Cholinesterase [6] and against Acetylcholinesterase [8] were 1890 nM and “Not Active”, respectively. For the same compound, in data set [4], the inhibition came out at 21.1%.
As for `C=C(C)[C@@H]1CCC(C)=C[C@H]1c1c(O)cc(CCCCC)cc1OC(=O)N(C)Cc1ccc(Br)cc1`, the IC50 was 7.3 nM against Cholinesterase [6], “Not Active” on Acetylcholinesterase [9], 2150 nM on Cholinesterase [10] and “Not Active” against Acetylcholinesterase [8]. Also, in data set [4], the inhibition was 41.8%. Further, the logD at 48 h in data set [11] is 2.37.
Turning to `C=C(C)[C@@H]1CCC(C)=C[C@H]1c1c(OC(=O)N(C)CC)cc(CCCCC)cc1OC(=O)N(C)CC`, the IC50 is 290 nM at Cholinesterase [6] and “Not Active” at Acetylcholinesterase [8]. In addition, the inhibition in [4] came to 0.1%. In data set [11], this compound showed a logD at 48 h of 2.57.
For `C=C(C)[C@@H]1CCC(C)=C[C@H]1c1c(OC(=O)N2CCOCC2)cc(CCCCC)cc1OC(=O)N1CCOCC1`, the IC50 was 3360 nM at Cholinesterase [6] and “Not Active” against Acetylcholinesterase [8]. Further, in data set [4], the inhibition stood at 2%.
On Cholinesterase [6], `C=C(C)[C@@H]1CCC(C)=C[C@H]1c1c(O)cc(CCCCC)cc1OC(=O)N(C)C` registered an IC50 of 200 nM. Also, the figures for the inhibition in data set [7] and in data set [4] were 36.1% and 27.1%, respectively.
`C=C(C)[C@@H]1CCC(C)=C[C@H]1c1c(OC(=O)N2CCCC2)cc(CCCCC)cc1OC(=O)N1CCCC1`: the IC50 against Cholinesterase [6] is 530 nM; against Acetylcholinesterase [8], “Not Active”. In addition, the inhibition in data set [4] worked out at 17.8%.
Take `C=C(C)[C@@H]1CCC(C)=C[C@H]1c1c(O)cc(CCCCC)cc1OC(=O)N(C)Cc1cccc(Cl)c1`: the IC50 against Cholinesterase [6] was 2820 nM; at Acetylcholinesterase [8], “Not Active”. Further, the inhibition entry in [4] was “inactive”.
In the case of `C=C(C)[C@@H]1CCC(C)=C[C@H]1c1c(O)cc(CCCCC)cc1OC(=O)N(C)Cc1ccccc1`, the IC50 is 46 nM against Cholinesterase [6] and “Not Active” on Acetylcholinesterase [8]. For the same compound, the inhibition in data set [4] stood at 21.1%. Further, the logD at 48 h in data set [11] was found to be 2.2.
Regarding `C=C(C)[C@@H]1CCC(C)=C[C@H]1c1c(O)cc(CCCCC)cc1OC(=O)N(C)Cc1ccc(F)cc1`, the IC50 was 69 nM against Cholinesterase [6] and “Not Active” at Acetylcholinesterase [8]. For the same compound, the inhibition in data set [4] turned out to be 27%.
Take `C=C(C)[C@@H]1CCC(C)=C[C@H]1c1c(O)cc(CCCCC)cc1OC(=O)N1CCCC1`: the IC50 against Cholinesterase [6] was 390 nM; at Acetylcholinesterase [8], “Not Active”. Also, at Cholinesterase [12], the Kd was found to be 350 nM. The figures for the K in data set [2], in data set [3] and in data set [5] were 0.33 min⁻¹, 0.94 µM/min and 5.13 10^3/min, respectively. The inhibition in data set [4] turned out to be 4.9%.
For the compound `C=C(C)[C@@H]1CCC(C)=C[C@H]1c1c(O)cc(CCCCC)cc1OC(=O)N(C)CC`, the inhibition amounted to 13.2% at Acetylcholinesterase [1] and 31.1% in data set [4]. In addition, the results for the IC50 on Cholinesterase [6], against Cholinesterase [10] and at Acetylcholinesterase [8] (read-out: IC50) were 77 nM, 1510 nM and 15 µM, respectively. Besides, in data set [13], the Papp at 18 h, 100 ug/ml came out at 18.8 ×10⁻⁶ cm/s. This compound also came in with a logD at 48 h in data set [11] of 1.92.
Consider `C=C(C)[C@@H]1CCC(C)=C[C@H]1c1c(OC(=O)N(C)Cc2ccccc2)cc(CCCCC)cc1OC(=O)N(C)Cc1ccccc1`, for which the figures for the IC50 at Cholinesterase [6] and against Acetylcholinesterase [8] were 380 nM and “Not Active”, respectively. Further, the inhibition in data set [4] turned out to be 41.8%.
In the same order, the values of `C=C(C)[C@@H]1CCC(C)=C[C@H]1c1c(O)cc(CCCCC)cc1OC(=O)N(C)Cc1cccc(F)c1` are 4870 nM, “Not Active” and “inactive”.
In the case of `C=C(C)[C@@H]1CCC(C)=C[C@H]1c1c(O)cc(CCCCC)cc1O` [CANNABIDIOL], the results for the IC50 on Cholinesterase [6] and on Acetylcholinesterase [8] (read-out: IC50) were 670 nM and 17.1 µM, respectively. Besides, the viability at 24 h, 25 µM in data set [14] is 20.1%. For the same compound, the inhibition in [4] was 66.7%. For the same compound, the viability at 24 h, 50 µM in data set [15] worked out at 92.6%. Further, the Papp at 18 h, 100 ug/ml in data set [13] came to 22.7 ×10⁻⁶ cm/s. Also, the viability at 25 µM with PC-12 is 17.9%. The logD at 48 h in [11] is 1.67.
`C=C(C)[C@@H]1CCC(C)=C[C@H]1c1c(O)cc(CCCCC)cc1OC(=O)N1CCCCC1`: at Cholinesterase [6], the midpoint of inhibition, the IC50, lay at 530 nM. Further, the inhibition in data set [7] came out at 30.5%; in data set [4], 46.8%.
Turning to `COc1cc2c(cc1OC)C(=O)C(CC1CCN(Cc3ccccc3)CC1)C2` (centres undefined) [DONEPEZIL], the outcome in the data set with Mus musculus [16], with Mus musculus [17], in the data set with Mus musculus [18], in the data set on Mus musculus [19], with Mus musculus [21] and with Mus musculus [23] was Active. Besides, in data set [20], the viability at 24 h, 50 µM came to 91.1%. Further, the inhibition in data set [4] came out at 1.3%. For the same compound, the inhibition in vivo at 15 mg/kg in the data set listed under Mus musculus [22] was determined as 19%.
